Laboratory results as given in the supplement of paper PMC13380429.
± gives the standard deviation of the averaged measurements.

How the values were obtained:
Details in all cases: 72 h
Caco-2 [1] = assay: drug sensitivity score (DSS) for viability; higher = more toxic; extreme values may be limits of the assay
HepG2 [2] = assay: as above
Calu-3 [3] = assay: as above
Vero E6 [4] = assay: as above
U2OS [5] = assay: as above
Caco-2 [6] = assay: relative viability EC50 (midpoint between 100% and the lowest measured viability); higher = less toxic
HepG2 [7] = assay: as above
Calu-3 [8] = assay: as above
Vero E6 [9] = assay: as above
U2OS [10] = assay: as above
Caco-2 [11] = assay: cell viability relative to DMSO; higher = less toxic
HepG2 [12] = assay: as above
Calu-3 [13] = assay: as above
Vero E6 [14] = assay: as above
U2OS [15] = assay: as above

`CCN(C(=O)c1c(O)c2c(Cl)cccc2n(C)c1=O)c1ccccc1` [laquinimod] showed a drug sensitivity score (Caco-2 [1]) of 0, a drug sensitivity score (HepG2 [2]) of 0 and a drug sensitivity score (Calu-3 [3]) of 0. For the same compound, the drug sensitivity score (Vero E6 [4]) was 0, the drug sensitivity score (U2OS [5]) was 0 and the “relative viability EC50” value (Caco-2 [6]) was over 10 µM. For the same compound, the “relative viability EC50” value (HepG2 [7]) was over 10 µM, the “relative viability EC50” value (Calu-3 [8]) was over 10 µM and the “relative viability EC50” value (Vero E6 [9]) was over 10 µM. For the same compound, the “relative viability EC50” value (U2OS [10]) was over 10 µM, the cell viability (Caco-2 [11]; 1 nM) was 90.3% and the cell viability (Caco-2 [11]; 10 nM) was 88.5%. The cell viability (Caco-2 [11]; 100 nM) was 98.2%, the cell viability (Caco-2 [11]; 1000 nM) was 106% and the cell viability (Caco-2 [11]; 10000 nM) was 91.5%. It also gave a cell viability (HepG2 [12]; 1 nM) of 102%, a cell viability (HepG2 [12]; 10 nM) of 98.6% and a cell viability (HepG2 [12]; 100 nM) of 103%. The cell viability (HepG2 [12]; 1000 nM) was 93.4%, the cell viability (HepG2 [12]; 10000 nM) was 92.8% and the cell viability (Calu-3 [13]; 1 nM) was 110%. It also gave a cell viability (Calu-3 [13]; 10 nM) of 87.9%, a cell viability (Calu-3 [13]; 100 nM) of 91.5% and a cell viability (Calu-3 [13]; 1000 nM) of 108%. The cell viability (Calu-3 [13]; 10000 nM) was 102%, the cell viability (Vero E6 [14]; 1 nM) was 99.8% and the cell viability (Vero E6 [14]; 10 nM) was 99.9%. The cell viability (Vero E6 [14]; 100 nM) was 92.8%, the cell viability (Vero E6 [14]; 1000 nM) was 92.5% and the cell viability (Vero E6 [14]; 10000 nM) was 91.4%. The cell viability (U2OS [15]; 1 nM) was 96.9%, the cell viability (U2OS [15]; 10 nM) was 98.9% and the cell viability (U2OS [15]; 100 nM) was 99.2%. For the same compound, the cell viability (U2OS [15]; 1000 nM) was 97.6% and the cell viability (U2OS [15]; 10000 nM) was 96.9%.
`CC(C)(C)NC[C@H](O)COc1cccc2c1CCCC2=O` [levobunolol] gave a drug sensitivity score (Caco-2 [1]) of 0, a drug sensitivity score (HepG2 [2]) of 0 and a drug sensitivity score (Calu-3 [3]) of 0. The drug sensitivity score (Vero E6 [4]) was 0, the drug sensitivity score (U2OS [5]) was 0 and the “relative viability EC50” value (Caco-2 [6]) was over 10 µM. The “relative viability EC50” value (HepG2 [7]) was over 10 µM, the “relative viability EC50” value (Calu-3 [8]) was over 10 µM and the “relative viability EC50” value (Vero E6 [9]) was over 10 µM. For the same compound, the “relative viability EC50” value (U2OS [10]) was over 10 µM, the cell viability (Caco-2 [11]; 1 nM) was 88 ± 1.8% and the cell viability (Caco-2 [11]; 10 nM) was 94.8 ± 5.9%. The cell viability (Caco-2 [11]; 100 nM) was 96 ± 4.7%, the cell viability (Caco-2 [11]; 1000 nM) was 101.3 ± 0.64% and the cell viability (Caco-2 [11]; 10000 nM) was 97.2 ± 1.1%. The cell viability (HepG2 [12]; 1 nM) was 100 ± 4.1%, the cell viability (HepG2 [12]; 10 nM) was 95.8 ± 2.8% and the cell viability (HepG2 [12]; 100 nM) was 112 ± 2%. The cell viability (HepG2 [12]; 1000 nM) was 94.8 ± 4.3%, the cell viability (HepG2 [12]; 10000 nM) was 97.9 ± 2.4% and the cell viability (Calu-3 [13]; 1 nM) was 99.2 ± 9.6%. For the same compound, the cell viability (Calu-3 [13]; 10 nM) was 102 ± 0.99%, the cell viability (Calu-3 [13]; 100 nM) was 93.9 ± 3.1% and the cell viability (Calu-3 [13]; 1000 nM) was 103 ± 3.2%. It also gave a cell viability (Calu-3 [13]; 10000 nM) of 104.25 ± 0.071%, a cell viability (Vero E6 [14]; 1 nM) of 105 ± 6.1% and a cell viability (Vero E6 [14]; 10 nM) of 94.6 ± 2.8%. For the same compound, the cell viability (Vero E6 [14]; 100 nM) was 95.6 ± 5.7%, the cell viability (Vero E6 [14]; 1000 nM) was 90.5 ± 3.1% and the cell viability (Vero E6 [14]; 10000 nM) was 101 ± 3.8%. It also gave a cell viability (U2OS [15]; 1 nM) of 97.15 ± 0.78%, a cell viability (U2OS [15]; 10 nM) of 102 ± 2% and a cell viability (U2OS [15]; 100 nM) of 101.5 ± 0.21%. It also gave a cell viability (U2OS [15]; 1000 nM) of 101.3 ± 0.78% and a cell viability (U2OS [15]; 10000 nM) of 103 ± 0.21%.
Work on `CC#CCn1c(N2CCC[C@@H](N)C2)nc2c1c(=O)n(Cc1nc(C)c3ccccc3n1)c(=O)n2C` [linagliptin] yielded a drug sensitivity score (Caco-2 [1]) of 0, a drug sensitivity score (HepG2 [2]) of 0 and a drug sensitivity score (Calu-3 [3]) of 0. For the same compound, the drug sensitivity score (Vero E6 [4]) was 0, the drug sensitivity score (U2OS [5]) was 0 and the “relative viability EC50” value (Caco-2 [6]) was over 10 µM. The “relative viability EC50” value (HepG2 [7]) was over 10 µM, the “relative viability EC50” value (Calu-3 [8]) was over 10 µM and the “relative viability EC50” value (Vero E6 [9]) was over 10 µM. For the same compound, the “relative viability EC50” value (U2OS [10]) was over 10 µM, the cell viability (Caco-2 [11]; 1 nM) was 103% and the cell viability (Caco-2 [11]; 10 nM) was 105%. It also gave a cell viability (Caco-2 [11]; 100 nM) of 89.9%, a cell viability (Caco-2 [11]; 1000 nM) of 91.4% and a cell viability (Caco-2 [11]; 10000 nM) of 102%. For the same compound, the cell viability (HepG2 [12]; 1 nM) was 95.3%, the cell viability (HepG2 [12]; 10 nM) was 93.8% and the cell viability (HepG2 [12]; 100 nM) was 95.7%. For the same compound, the cell viability (HepG2 [12]; 1000 nM) was 103%, the cell viability (HepG2 [12]; 10000 nM) was 102% and the cell viability (Calu-3 [13]; 1 nM) was 95.9%. It also gave a cell viability (Calu-3 [13]; 10 nM) of 103%, a cell viability (Calu-3 [13]; 100 nM) of 99.2% and a cell viability (Calu-3 [13]; 1000 nM) of 97.9%. It also gave a cell viability (Calu-3 [13]; 10000 nM) of 102%, a cell viability (Vero E6 [14]; 1 nM) of 97.1% and a cell viability (Vero E6 [14]; 10 nM) of 106%. The cell viability (Vero E6 [14]; 100 nM) was 105%, the cell viability (Vero E6 [14]; 1000 nM) was 84.4% and the cell viability (Vero E6 [14]; 10000 nM) was 110%. The cell viability (U2OS [15]; 1 nM) was 98.4%, the cell viability (U2OS [15]; 10 nM) was 99.8% and the cell viability (U2OS [15]; 100 nM) was 98.9%. For the same compound, the cell viability (U2OS [15]; 1000 nM) was 107% and the cell viability (U2OS [15]; 10000 nM) was 96.1%.
`CC(C)CCNC(=O)[C@H](CC(C)C)NC(=O)[C@H]1O[C@@H]1C(=O)O` [loxistatin-acid] showed a drug sensitivity score (Caco-2 [1]) of 0, a drug sensitivity score (HepG2 [2]) of 0 and a drug sensitivity score (Calu-3 [3]) of 0. For the same compound, the drug sensitivity score (Vero E6 [4]) was 0, the drug sensitivity score (U2OS [5]) was 0 and the “relative viability EC50” value (Caco-2 [6]) was over 10 µM. For the same compound, the “relative viability EC50” value (HepG2 [7]) was over 10 µM, the “relative viability EC50” value (Calu-3 [8]) was over 10 µM and the “relative viability EC50” value (Vero E6 [9]) was over 10 µM. The “relative viability EC50” value (U2OS [10]) was over 10 µM, the cell viability (Caco-2 [11]; 1 nM) was 103% and the cell viability (Caco-2 [11]; 10 nM) was 95.6%. The cell viability (Caco-2 [11]; 100 nM) was 93.1%, the cell viability (Caco-2 [11]; 1000 nM) was 99% and the cell viability (Caco-2 [11]; 10000 nM) was 100%. The cell viability (HepG2 [12]; 1 nM) was 93.4%, the cell viability (HepG2 [12]; 10 nM) was 98.3% and the cell viability (HepG2 [12]; 100 nM) was 104%. It also gave a cell viability (HepG2 [12]; 1000 nM) of 103%, a cell viability (HepG2 [12]; 10000 nM) of 104% and a cell viability (Calu-3 [13]; 1 nM) of 101%. It also gave a cell viability (Calu-3 [13]; 10 nM) of 95.8%, a cell viability (Calu-3 [13]; 100 nM) of 101% and a cell viability (Calu-3 [13]; 1000 nM) of 91.5%. The cell viability (Calu-3 [13]; 10000 nM) was 105%, the cell viability (Vero E6 [14]; 1 nM) was 103% and the cell viability (Vero E6 [14]; 10 nM) was 107%. It also gave a cell viability (Vero E6 [14]; 100 nM) of 99.4%, a cell viability (Vero E6 [14]; 1000 nM) of 102% and a cell viability (Vero E6 [14]; 10000 nM) of 101%. For the same compound, the cell viability (U2OS [15]; 1 nM) was 99.4%, the cell viability (U2OS [15]; 10 nM) was 98.7% and the cell viability (U2OS [15]; 100 nM) was 101%. For the same compound, the cell viability (U2OS [15]; 1000 nM) was 101% and the cell viability (U2OS [15]; 10000 nM) was 105%.
`Nc1ccccc1NC(=O)c1ccc(CNc2nccc(-c3cccnc3)n2)cc1` [mocetinostat] gave a drug sensitivity score (Caco-2 [1]) of 9.2, a drug sensitivity score (HepG2 [2]) of 12.5 and a drug sensitivity score (Calu-3 [3]) of 13. For the same compound, the drug sensitivity score (Vero E6 [4]) was 13.9, the drug sensitivity score (U2OS [5]) was 10.4 and the “relative viability EC50” value (Caco-2 [6]) was 1.12 µM. For the same compound, the “relative viability EC50” value (HepG2 [7]) was 0.756 µM, the “relative viability EC50” value (Calu-3 [8]) was 0.405 µM and the “relative viability EC50” value (Vero E6 [9]) was 0.567 µM. For the same compound, the “relative viability EC50” value (U2OS [10]) was 1.26 µM, the cell viability (Caco-2 [11]; 1 nM) was 95.6% and the cell viability (Caco-2 [11]; 10 nM) was 100%. It also gave a cell viability (Caco-2 [11]; 100 nM) of 102%, a cell viability (Caco-2 [11]; 1000 nM) of 64.4% and a cell viability (Caco-2 [11]; 10000 nM) of 17.7%. It also gave a cell viability (HepG2 [12]; 1 nM) of 102%, a cell viability (HepG2 [12]; 10 nM) of 100% and a cell viability (HepG2 [12]; 100 nM) of 88.9%. It also gave a cell viability (HepG2 [12]; 1000 nM) of 44.2%, a cell viability (HepG2 [12]; 10000 nM) of 1.1% and a cell viability (Calu-3 [13]; 1 nM) of 102%. It also gave a cell viability (Calu-3 [13]; 10 nM) of 89.6%, a cell viability (Calu-3 [13]; 100 nM) of 86.8% and a cell viability (Calu-3 [13]; 1000 nM) of 40%. The cell viability (Calu-3 [13]; 10000 nM) was 17.7%, the cell viability (Vero E6 [14]; 1 nM) was 95.4% and the cell viability (Vero E6 [14]; 10 nM) was 94.7%. For the same compound, the cell viability (Vero E6 [14]; 100 nM) was 78%, the cell viability (Vero E6 [14]; 1000 nM) was 43.4% and the cell viability (Vero E6 [14]; 10000 nM) was -0.1%. It also gave a cell viability (U2OS [15]; 1 nM) of 98.4%, a cell viability (U2OS [15]; 10 nM) of 97.2% and a cell viability (U2OS [15]; 100 nM) of 100%. For the same compound, the cell viability (U2OS [15]; 1000 nM) was 64.2% and the cell viability (U2OS [15]; 10000 nM) was 0.3%.
